According to patent publication US20130029970A1 (priority 2009, published 2013):

Tests used:
[1] = target: T1, recombinant human cannabinoid receptor CB2 (Homo sapiens, UniProt P34972); test: Cannabinoid receptor radioligand binding assay, [3H]-CP 55,940 displacement, hCB2
T1 construct: (cDNA clone) CNR0200000
In short: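 Membranes from hCB2-transfected cells, prepared by 1000×g then 40,000×g centrifugation, resuspended in 20 mM HEPES pH 7.4, 5 mM MgCl2, 1 mM EDTA, 10% sucrose.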

human CB2 receptors = target: T2, human CB2 receptors (Homo sapiens, UniProt P34972); test: cAMP assay in HEK-293 cells, hCB2 agonist; format: cell-based; conditions: inhibition of forskolin-stimulated cAMP, HEK-293 cells; for EC50: read-out: hCB2 EC50 (cAMP ag)
T2 construct: (cDNA clone) CNR0200000
In short: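 HEK-293 cells stably expressing human CB2, suspended at 1,500,000 cells/mL in HBSS with 10 mM HEPES and 0.1% fatty-acid-free BSA, exposed to test compound plus forskolin (90 uM in the 3× compound solution) for 30 min at 37° C.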

human CB1 receptors = target: T3, human CB1 receptors (Homo sapiens, UniProt P21554); test: cAMP assay in HEK-293 cells, hCB1 agonist; format: cell-based; conditions: inhibition of forskolin-stimulated cAMP, HEK-293 cells; for EC50: read-out: hCB1 EC50 (cAMP ag)
T3 construct: (cDNA clone) CNR01L000
In short: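 Stable hCB1 HEK-293 cells suspended in HBSS with 10 mM HEPES and 0.1% fatty acid-free BSA, incubated 30 min at 37° C. with compound plus forskolin (90 uM in the 3× compound solution). Lysed cAMP measured by enzyme-fragment kit; EC50 = 50% inhibition of forskolin-stimulated cAMP (forskolin maximum = 100%), sigmoidal fit.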

T1 sequence (P34972 whole entry): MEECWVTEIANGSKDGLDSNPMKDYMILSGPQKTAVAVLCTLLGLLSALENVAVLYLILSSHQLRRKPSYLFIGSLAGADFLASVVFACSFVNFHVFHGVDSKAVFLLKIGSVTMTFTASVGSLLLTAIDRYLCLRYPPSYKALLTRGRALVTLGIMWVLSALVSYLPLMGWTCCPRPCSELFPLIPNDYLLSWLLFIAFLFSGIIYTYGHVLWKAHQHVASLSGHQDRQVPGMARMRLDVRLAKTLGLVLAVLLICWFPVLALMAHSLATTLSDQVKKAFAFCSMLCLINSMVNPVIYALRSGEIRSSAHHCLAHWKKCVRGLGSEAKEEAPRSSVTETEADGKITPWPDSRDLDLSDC
T2 sequence (P34972 whole entry): as above
T3 sequence (P21554 whole entry): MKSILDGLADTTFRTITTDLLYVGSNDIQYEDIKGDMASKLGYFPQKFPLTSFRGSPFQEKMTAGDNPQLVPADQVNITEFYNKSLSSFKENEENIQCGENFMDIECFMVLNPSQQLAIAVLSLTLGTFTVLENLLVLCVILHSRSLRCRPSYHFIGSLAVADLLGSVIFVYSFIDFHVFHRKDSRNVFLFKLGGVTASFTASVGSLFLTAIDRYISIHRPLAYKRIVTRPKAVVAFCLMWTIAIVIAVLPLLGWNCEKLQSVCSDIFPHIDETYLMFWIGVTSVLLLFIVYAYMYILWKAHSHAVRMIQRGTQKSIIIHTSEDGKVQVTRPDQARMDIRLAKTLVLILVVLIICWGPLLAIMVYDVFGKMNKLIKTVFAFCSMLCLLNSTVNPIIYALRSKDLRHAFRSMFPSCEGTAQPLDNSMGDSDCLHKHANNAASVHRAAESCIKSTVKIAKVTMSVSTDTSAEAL

## Cc1cc2cc(C(=O)c3cccc(Cl)c3)sc2n1CCN1CCOCC1 [Compound 4, (3-Chlorophenyl)(5-methyl-6-(2-morpholinoethyl)-6H-thieno[2,3-b]pyrrol-2-yl)methanone]
[1]
  IC50: 100 to 1000 nM
Human CB2 receptors
  EC50: < 100 nM
Human CB1 receptors
  hCB1 EC50 (cAMP ag, nM): NS (NS means “Not Significant,” which means less than 30% agonist activity when compared to the positive control.)

## Cc1cc2cc(C(=O)c3ccccc3)sc2n1CCN1CCOCC1 [Compound 7, (5-Methyl-6-(2-morpholinoethyl)-6H-thieno[2,3-b]pyrrol-2-yl)(phenyl)methanone]
[1]
  IC50: 100 to 1000 nM
Human CB2 receptors
  EC50: < 100 nM
Human CB1 receptors
  EC50: 1000 to 10000 nM

## Cc1cc2cc(C(=O)c3ccc(Cl)cc3Cl)sc2n1CCN1CCOCC1 [Compound 10, (2,4-Dichlorophenyl)(5-methyl-6-(2-morpholinoethyl)-6H-thieno[2,3-b]pyrrol-2-yl)methanone]
[1]
  IC50: < 100 nM
Human CB2 receptors
  EC50: < 100 nM
Human CB1 receptors
  EC50: 100 to 1000 nM

## Cc1ccccc1C(=O)c1cc2cc(C)n(CCN3CCOCC3)c2s1 [Compound 12, (5-Methyl-6-(2-morpholinoethyl)-6H-thieno[2,3-b]pyrrol-2-yl)(o-tolyl)methanone]
[1]
  IC50: < 100 nM
Human CB2 receptors
  EC50: < 100 nM
Human CB1 receptors
  EC50: 100 to 1000 nM

## CCn1c(C)cc2cc(C(=O)c3cccc(Cl)c3Cl)sc21 [Compound 19, (2,3-Dichlorophenyl)(6-ethyl-5-methyl-6H-thieno[2,3-b]pyrrol-2-yl)methanone]
[1]
  IC50: 100 to 1000 nM
Human CB2 receptors
  EC50: < 100 nM
Human CB1 receptors
  hCB1 EC50 (cAMP ag, nM): NS (NS means “Not Significant,” which means less than 30% agonist activity when compared to the positive control.)

## CCS(=O)(=O)n1c(C)cc2cc(C(=O)c3cccc(Cl)c3Cl)sc21 [Compound 25, (2,3-Dichlorophenyl)(6-(ethylsulfonyl)-5-methyl-6H-thieno[2,3-b]pyrrol-2-yl)methanone]
[1]
  IC50: < 100 nM
Human CB2 receptors
  EC50: < 100 nM
Human CB1 receptors
  hCB1 EC50 (cAMP ag, nM): NS (NS means “Not Significant,” which means less than 30% agonist activity when compared to the positive control.)

## COc1cccc(C(=O)c2cc3cc(C)n(CCN4CCOCC4)c3s2)c1 [Compound 26, (3-Methoxyphenyl)(5-methyl-6-(2-morpholinoethyl)-6H-thieno[2,3-b]pyrrol-2-yl)methanone]
[1]
  IC50: < 100 nM
Human CB2 receptors
  EC50: < 100 nM
Human CB1 receptors
  EC50: 100 to 1000 nM

## Cc1cc2cc(C(=O)c3cccc(Cl)c3Cl)sc2n1CCc1ccccc1 [Compound 30, (2,3-Dichlorophenyl)(5-methyl-6-phenethyl-6H-thieno[2,3-b]pyrrol-2-yl)methanone]
[1]
  IC50: < 100 nM
Human CB2 receptors
  EC50: < 100 nM
Human CB1 receptors
  hCB1 EC50 (cAMP ag, nM): NS (NS means “Not Significant,” which means less than 30% agonist activity when compared to the positive control.)

## Cc1cc2cc(C(=O)c3cccc(Cl)c3Cl)sc2n1CC1CCOCC1 [Compound 31, (2,3-Dichlorophenyl)(5-methyl-6-((tetrahydro-2H-pyran-4-yl)methyl)-6H-thieno[2,3-b]pyrrol-2-yl)methanone]
[1]
  IC50: < 100 nM
Human CB2 receptors
  EC50: < 100 nM
Human CB1 receptors
  hCB1 EC50 (cAMP ag, nM): NS (NS means “Not Significant,” which means less than 30% agonist activity when compared to the positive control.)

## Cc1cc2cc(Cc3cccc(Cl)c3Cl)sc2n1CCN1CCOCC1 [Compound 32, 4-(2-(2-(2,3-Dichlorobenzyl)-5-methyl-6H-thieno[2,3-b]pyrrol-6-yl)ethyl)morpholine]
[1]
  IC50: < 100 nM
Human CB2 receptors
  EC50: < 100 nM
Human CB1 receptors
  EC50: 1000 to 10000 nM

## Cc1cc2cc(C(=O)c3cccc(Cl)c3Cl)sc2n1CCN1CCN(C)CC1 [Compound 33, (2,3-Dichlorophenyl)(5-methyl-6-(2-(4-methylpiperazin-1-yl)ethyl)-6H-thieno[2,3-b]pyrrol-2-yl)methanone]
[1]
  IC50: 1000 to 10000 nM
Human CB2 receptors
  hCB2 EC50 (cAMP ag, nM): NS (NS means “Not Significant,” which means less than 30% agonist activity when compared to the positive control.)
Human CB1 receptors
  hCB1 EC50 (cAMP ag, nM): NS (NS means “Not Significant,” which means less than 30% agonist activity when compared to the positive control.)

## Cc1cc2cc(C(=O)c3cccc(Cl)c3Cl)sc2n1CCCNS(C)(=O)=O [Compound 37, N-(3-(2-(2,3-Dichlorobenzoyl)-5-methyl-6H-thieno[2,3-b]pyrrol-6-yl)propyl)methanesulfonamide]
[1]
  IC50: < 100 nM
Human CB2 receptors
  EC50: < 100 nM
Human CB1 receptors
  hCB1 EC50 (cAMP ag, nM): NS (NS means “Not Significant,” which means less than 30% agonist activity when compared to the positive control.)

## Cc1cc2cc(C(=O)c3cccc(Cl)c3Cl)sc2n1S(=O)(=O)C(C)C [Compound 38, (2,3-Dichlorophenyl)(6-(isopropylsulfonyl)-5-methyl-6H-thieno[2,3-b]pyrrol-2-yl)methanone]
[1]
  IC50: < 100 nM
Human CB2 receptors
  EC50: < 100 nM
Human CB1 receptors
  hCB1 EC50 (cAMP ag, nM): NS (NS means “Not Significant,” which means less than 30% agonist activity when compared to the positive control.)

## CCS(=O)(=O)n1c(C)cc2cc(C(=O)c3ccccc3Cl)sc21 [Compound 42, (2-Chlorophenyl)(6-(ethylsulfonyl)-5-methyl-6H-thieno[2,3-b]pyrrol-2-yl)methanone]
[1]
  IC50: 100 to 1000 nM
Human CB2 receptors
  EC50: < 100 nM
Human CB1 receptors
  hCB1 EC50 (cAMP ag, nM): NS (NS means “Not Significant,” which means less than 30% agonist activity when compared to the positive control.)

## CCS(=O)(=O)n1c(C)cc2cc(C(=O)c3cccnc3Cl)sc21 [Compound 43, (2-Chloropyridin-3-yl)(6-(ethylsulfonyl)-5-methyl-6H-thieno[2,3-b]pyrrol-2-yl)methanone]
[1]
  IC50: 100 to 1000 nM
Human CB2 receptors
  EC50: < 100 nM
Human CB1 receptors
  hCB1 EC50 (cAMP ag, nM): NS (NS means “Not Significant,” which means less than 30% agonist activity when compared to the positive control.)

## COc1ccc(C(=O)c2cc3cc(C)n(CCCNS(C)(=O)=O)c3s2)cc1 [Compound 44, N-(3-(2-(4-methoxybenzoyl)-5-methyl-6H-thieno[2,3-b]pyrrol-6-yl)propyl)methanesulfonamide]
[1]
  IC50: < 100 nM
Human CB2 receptors
  EC50: < 100 nM
Human CB1 receptors
  hCB1 EC50 (cAMP ag, nM): NS (NS means “Not Significant,” which means less than 30% agonist activity when compared to the positive control.)

## Cc1cc2cc(C(=O)c3cccc(Cl)c3Cl)sc2n1S(=O)(=O)N1CCOCC1 [Compound 45, (2,3-Dichlorophenyl)(5-methyl-6-(morpholinosulfonyl)-6H-thieno[2,3-b]pyrrol-2-yl)methanone]
[1]
  IC50: < 100 nM
Human CB2 receptors
  EC50: < 100 nM
Human CB1 receptors
  hCB1 EC50 (cAMP ag, nM): NS (NS means “Not Significant,” which means less than 30% agonist activity when compared to the positive control.)

## Cc1cc2cc(C(=O)c3cccc(Cl)c3Cl)sc2n1S(=O)(=O)CC1CCOCC1 [Compound 46, (2,3-Dichlorophenyl)(5-methyl-6-((tetrahydro-2H-pyran-4-yl)methylsulfonyl)-6H-thieno[2,3-b]pyrrol-2-yl)methanone]
[1]
  IC50: < 100 nM
Human CB2 receptors
  EC50: < 100 nM
Human CB1 receptors
  EC50: < 100 nM

## COc1ncccc1C(=O)c1cc2cc(C)n(CCN3CCOCC3)c2s1 [Compound 47, (2-Methoxypyridin-3-yl)(5-methyl-6-(2-morpholinoethyl)-6H-thieno[2,3-b]pyrrol-2-yl)methanone]
[1]
  IC50: 1000 to 10000 nM
Human CB2 receptors
  EC50: < 100 nM
Human CB1 receptors
  hCB1 EC50 (cAMP ag, nM): NS (NS means “Not Significant,” which means less than 30% agonist activity when compared to the positive control.)

## COc1ccc(C(=O)c2cc3cc(C)n(S(=O)(=O)N(C)C)c3s2)cc1 [Compound 51, 2-(4-Methoxybenzoyl)-N,N,5-trimethyl-6H-thieno[2,3-b]pyrrole-6-sulfonamide]
[1]
  IC50: < 100 nM
Human CB2 receptors
  EC50: < 100 nM
Human CB1 receptors
  hCB1 EC50 (cAMP ag, nM): NS (NS means “Not Significant,” which means less than 30% agonist activity when compared to the positive control.)

## COc1ccc(C(=O)c2cc3cc(C)n(S(=O)(=O)N4CCOCC4)c3s2)cc1 [Compound 53, (4-methoxyphenyl)(5-methyl-6-(morpholinosulfonyl)-6H-thieno[2,3-b]pyrrol-2-yl)methanone]
[1]
  IC50: < 100 nM
Human CB2 receptors
  EC50: < 100 nM
Human CB1 receptors
  EC50: < 100 nM

## COc1ccc(C(=O)c2cc3cc(C)n(CCN4CCCOCC4)c3s2)cn1 [Compound 158, (6-(2-(1,4-oxazepan-4-yl)ethyl)-5-methyl-6H-thieno[2,3-b]pyrrol-2-yl)(6-methoxypyridin-3-yl)methanone]
Human CB2 receptors
  EC50: < 100 nM
Human CB1 receptors
  hCB1 EC50 (cAMP ag, nM): NS (NS means “Not Significant,” which means less than 30% agonist activity when compared to the positive control.)

## COc1ccc(C(=O)c2cc3cc(C)n(CCNC4CCOC4)c3s2)cn1 (stereo not drawn) [Compound 164, (6-methoxypyridin-3-yl)(5-methyl-6-(2-((tetrahydrofuran-3-yl)amino)ethyl)-6H-thieno[2,3-b]pyrrol-2-yl)methanone]
Human CB2 receptors
  EC50: < 100 nM
Human CB1 receptors
  hCB1 EC50 (cAMP ag, nM): NS (NS means “Not Significant,” which means less than 30% agonist activity when compared to the positive control.)

## COc1ccc(C(=O)c2cc3cc(C)n(CCN4CCCC4)c3s2)cn1 [Compound 167, (6-methoxypyridin-3-yl)(5-methyl-6-(2-(pyrrolidin-1-yl)ethyl)-6H-thieno[2,3-b]pyrrol-2-yl)methanone]
Human CB2 receptors
  EC50: < 100 nM
Human CB1 receptors
  hCB1 EC50 (cAMP ag, nM): NS (NS means “Not Significant,” which means less than 30% agonist activity when compared to the positive control.)
